# Measured values published in ChEMBL document CHEMBL1201862, “PubChem BioAssay data set” (2004).
# pIC50: −log10 of the molar value. The source made the active and inactive calls.
# Key:
# Serine hydrolase RBBP9 = Serine hydrolase RBBP9 (Homo sapiens, UniProt O75884); assay: RBBP9 hydrolase inhibition, IC50 by ABPP – biochemical, gel-based ABPP, late-stage follow-up, panel member Panel member description: RBBP9 IC50 Gel-based ABPP Assay (AID 2254)
# HEK293 [1] = assay: PMA/Ionomycin induced NF-kB luciferase assay in 293- NF-kB-Luc stable cells. [Related pubchem assays: 1299, 1270, 1295, 1375, 1287, 1281, 1293, 1291, 1289, 1280, 465, 1364, 1282, 1372, 1365, 1370, 1367, 1366, 1269, 1373, 1292, 1290, 1302, 1371, 1283, 1271, 1294, 1374, 1368, 1369 ]; type: functional, cell-based; settings: Homo sapiens
# [2] = molecular target: Luciferin 4-monooxygenase (Photinus pyralis, UniProt P08659); assay: In vitro luciferase assay using purified luciferase. [Related pubchem assays: 1299, 1270, 1295, 1375, 1287, 1281, 1293, 1291, 1289, 1280, 465, 1364, 1282, 1372, 1365, 1370, 1367, 1366, 1266, 1373, 1292, 1290, 1302, 1371, 1283, 1271, 1294, 1374, 1368, 1369 ]
# Chain of Luciferin 4-monooxygenase (P08659 whole entry): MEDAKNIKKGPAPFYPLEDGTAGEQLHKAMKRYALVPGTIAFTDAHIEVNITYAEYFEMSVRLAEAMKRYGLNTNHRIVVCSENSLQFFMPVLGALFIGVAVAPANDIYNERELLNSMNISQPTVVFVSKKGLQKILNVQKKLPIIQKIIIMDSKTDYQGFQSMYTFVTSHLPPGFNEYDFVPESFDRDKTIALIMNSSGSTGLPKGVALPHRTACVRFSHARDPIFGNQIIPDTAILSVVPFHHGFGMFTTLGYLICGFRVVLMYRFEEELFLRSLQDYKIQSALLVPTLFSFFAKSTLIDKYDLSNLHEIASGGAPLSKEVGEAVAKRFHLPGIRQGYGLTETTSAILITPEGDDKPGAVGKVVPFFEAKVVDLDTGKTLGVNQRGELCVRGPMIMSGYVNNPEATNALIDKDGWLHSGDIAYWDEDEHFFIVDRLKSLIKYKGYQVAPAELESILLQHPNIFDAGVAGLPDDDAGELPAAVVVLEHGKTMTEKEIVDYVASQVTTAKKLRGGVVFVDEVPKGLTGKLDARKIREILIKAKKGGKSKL
# HEK293 [3] = assay: Cytotoxicity assay in HEK293 cells. [Related pubchem assays (depositor defined):AID1266, AID1269, AID1270, AID1271, AID1280, AID1281, AID1282, AID1283, AID1287, AID1289, AID1290, AID1291, AID1292, AID1293, AID1294, AID1295, AID1299, AID1302, AID1364, AID1365, AID1366, AID1367, AID1369, AID1370, AID1371, AID1372, AID1373, AID1374, AID1375, AID1384 …; type: functional, cell-based; settings: Homo sapiens
# HEK293 [4] = assay: TNF Induced NF-kB Luciferase in 293-NF-kB-Luc Stable Cells. [Related pubchem assays: 1266, 1299, 1269, 1373, 1292, 1290, 1302, 1371, 1283, 1270, 1295, 1271, 1375, 1294, 1374, 1281, 1293, 1291, 1289, 1280, 465, 1368, 1364, 1282, 1372, 1365, 1369, 1370, 1367, 1366 ]; type: functional, cell-based; settings: Homo sapiens
# [5] = tested on: Streptococcus sp. 'group A'; assay: Streptococcus pyogenes SK(-)GAS viability under kanamycin – luminescence, BacTiterGlo, confirmation, counter-screen for streptokinase expression inhibitor project, dose response (AID 1900); type: functional, organism-based
# BJ [6] = assay: BJ-TERT fibroblast viability loss – cell-based, RAS-independent, luminescence, dose response (AID 1933); type: functional; settings: Homo sapiens
# cells [7] = type: functional, cell-based
# [8] = Luminescence Cell-Based Dose Response HTS to Identify Inhibitors of 5'UTR Stem-Loop Driven Prion Protein mRNA Translation in H4 Neuroglioblastoma Cells. [Related pubchem assays: 1827 (Project Summary), 1813 (Primary HTS)]; type: functional
# [9] = alpha-synuclein stem-loop luciferase translation blockers – H4 neuroglioma cells, luminescence, confirmation (AID 1988); type: functional, cell-based
# Streptokinase A = molecular target: T1, Streptokinase A (Streptococcus pyogenes serotype M1, UniProt P10520); assay: viability-normalized secreted streptokinase activity reduction – plasminogen activation absorbance, OD405, dose response (AID 1914); type: functional, Streptococcus pyogenes M1 GAS;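 also: secreted streptokinase activity via plasminogen activation per viability signal from cell pellet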
# T1 sequence (P10520 whole entry): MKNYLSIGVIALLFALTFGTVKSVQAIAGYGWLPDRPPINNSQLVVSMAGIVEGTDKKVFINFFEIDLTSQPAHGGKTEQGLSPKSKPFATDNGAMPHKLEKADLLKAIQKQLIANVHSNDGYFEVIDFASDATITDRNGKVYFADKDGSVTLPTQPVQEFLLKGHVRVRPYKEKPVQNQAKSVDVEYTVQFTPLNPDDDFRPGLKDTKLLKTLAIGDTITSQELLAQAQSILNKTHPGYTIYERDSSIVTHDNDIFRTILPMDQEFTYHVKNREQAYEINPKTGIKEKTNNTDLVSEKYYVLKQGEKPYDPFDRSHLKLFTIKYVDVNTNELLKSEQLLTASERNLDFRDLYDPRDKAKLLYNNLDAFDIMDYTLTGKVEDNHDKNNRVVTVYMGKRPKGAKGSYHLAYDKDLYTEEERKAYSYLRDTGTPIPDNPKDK
# BJ [10] = assay: cells; type: functional, cell-based; settings: Homo sapiens
# cells [11] = type: functional, cell-based; remark: listed apart in the source
# [12] = molecular target: T2, Kappa-type opioid receptor (Homo sapiens, UniProt P41145); type: functional
# T2 sequence (P41145 whole entry): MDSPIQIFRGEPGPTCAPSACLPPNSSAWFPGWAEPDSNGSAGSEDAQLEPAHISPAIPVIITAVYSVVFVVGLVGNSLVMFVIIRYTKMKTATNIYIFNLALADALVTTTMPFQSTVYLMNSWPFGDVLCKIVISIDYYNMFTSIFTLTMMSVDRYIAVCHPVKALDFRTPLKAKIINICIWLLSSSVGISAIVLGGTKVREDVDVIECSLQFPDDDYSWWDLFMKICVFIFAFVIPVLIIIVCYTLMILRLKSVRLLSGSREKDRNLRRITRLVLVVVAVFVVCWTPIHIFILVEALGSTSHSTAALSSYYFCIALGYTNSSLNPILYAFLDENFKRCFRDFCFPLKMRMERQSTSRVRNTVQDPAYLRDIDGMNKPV
# Beta-galactosidase = Beta-galactosidase (Escherichia coli, UniProt Q8VNN2); type: functional
# Chain of Beta-galactosidase (Q8VNN2 whole entry): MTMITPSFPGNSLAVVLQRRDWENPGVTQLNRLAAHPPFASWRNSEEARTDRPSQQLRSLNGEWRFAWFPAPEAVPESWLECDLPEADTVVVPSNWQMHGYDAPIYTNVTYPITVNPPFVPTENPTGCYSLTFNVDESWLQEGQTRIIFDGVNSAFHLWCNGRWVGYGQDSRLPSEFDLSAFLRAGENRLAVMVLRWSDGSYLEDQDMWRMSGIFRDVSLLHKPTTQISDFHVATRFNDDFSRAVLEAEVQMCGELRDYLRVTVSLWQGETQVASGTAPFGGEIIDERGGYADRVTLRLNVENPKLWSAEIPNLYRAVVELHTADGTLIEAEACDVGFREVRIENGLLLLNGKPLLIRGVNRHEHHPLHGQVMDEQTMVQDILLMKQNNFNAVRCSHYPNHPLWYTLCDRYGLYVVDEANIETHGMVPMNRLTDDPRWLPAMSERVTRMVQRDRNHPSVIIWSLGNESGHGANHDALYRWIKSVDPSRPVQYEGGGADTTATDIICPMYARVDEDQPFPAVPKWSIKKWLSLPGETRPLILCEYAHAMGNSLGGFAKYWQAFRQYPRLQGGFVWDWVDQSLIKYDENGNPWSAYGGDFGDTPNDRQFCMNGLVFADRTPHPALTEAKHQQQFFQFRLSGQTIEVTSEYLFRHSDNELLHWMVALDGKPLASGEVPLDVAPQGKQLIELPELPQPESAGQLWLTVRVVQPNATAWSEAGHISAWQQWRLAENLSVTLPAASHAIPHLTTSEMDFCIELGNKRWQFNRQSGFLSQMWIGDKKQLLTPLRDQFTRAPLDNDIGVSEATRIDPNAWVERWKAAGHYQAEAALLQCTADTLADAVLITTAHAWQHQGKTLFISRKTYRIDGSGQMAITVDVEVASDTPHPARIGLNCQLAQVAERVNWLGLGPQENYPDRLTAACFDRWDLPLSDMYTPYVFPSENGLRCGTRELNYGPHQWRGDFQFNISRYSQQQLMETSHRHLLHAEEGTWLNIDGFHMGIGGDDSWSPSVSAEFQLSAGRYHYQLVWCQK
# BJ [13] = assay: BJ-TERT-LT-ST fibroblast viability loss – cell-based, RAS-independent, luminescence, dose response (AID 1935); type: functional; settings: Homo sapiens;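 also: BJ fibroblasts immortalized with TERT plus LT and ST oncogenes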
# Ephrin type-A receptor 4 = Ephrin type-A receptor 4 (Mus musculus, UniProt Q03137); assay: EphA4 ligand-binding antagonists – biochemical, colorimetric, mouse EphA4, primary screen (AID 689); type: functional
# Chain of Ephrin type-A receptor 4 (Q03137 whole entry): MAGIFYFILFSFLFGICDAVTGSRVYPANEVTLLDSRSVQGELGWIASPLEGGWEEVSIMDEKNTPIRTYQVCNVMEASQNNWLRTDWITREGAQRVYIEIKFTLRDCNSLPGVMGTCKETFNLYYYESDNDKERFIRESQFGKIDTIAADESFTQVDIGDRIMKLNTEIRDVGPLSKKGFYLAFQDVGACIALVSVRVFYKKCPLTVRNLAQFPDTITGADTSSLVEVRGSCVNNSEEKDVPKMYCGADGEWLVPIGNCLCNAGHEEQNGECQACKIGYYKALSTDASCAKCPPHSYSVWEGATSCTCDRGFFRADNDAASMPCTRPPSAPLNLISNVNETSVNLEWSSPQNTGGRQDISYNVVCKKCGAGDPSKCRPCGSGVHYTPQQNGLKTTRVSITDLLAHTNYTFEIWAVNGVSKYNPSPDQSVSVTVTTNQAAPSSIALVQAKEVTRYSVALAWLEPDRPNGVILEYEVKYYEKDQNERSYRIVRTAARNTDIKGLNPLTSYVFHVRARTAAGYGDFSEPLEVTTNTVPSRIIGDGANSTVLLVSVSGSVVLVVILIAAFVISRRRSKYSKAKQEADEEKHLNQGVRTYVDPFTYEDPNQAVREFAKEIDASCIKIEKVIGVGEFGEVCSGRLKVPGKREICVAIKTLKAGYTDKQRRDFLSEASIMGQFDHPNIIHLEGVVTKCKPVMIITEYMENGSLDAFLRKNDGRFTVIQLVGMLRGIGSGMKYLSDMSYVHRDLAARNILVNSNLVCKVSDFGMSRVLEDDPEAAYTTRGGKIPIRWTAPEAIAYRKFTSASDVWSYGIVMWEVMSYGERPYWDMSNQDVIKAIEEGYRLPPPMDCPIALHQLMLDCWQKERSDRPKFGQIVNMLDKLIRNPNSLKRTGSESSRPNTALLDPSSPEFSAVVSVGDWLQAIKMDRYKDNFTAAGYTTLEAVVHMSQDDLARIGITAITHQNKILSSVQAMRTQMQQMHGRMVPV
# [14] = molecular target: T2, Kappa-type opioid receptor; type: functional; remark: listed apart in the source
# [15] = DRD fibroblast viability loss – cell-based, non-viral oncogenic, luminescence, dose response (AID 1934); type: functional; settings: Homo sapiens
# Streptococcus = assay: GAS UMAA2166 growth inhibition – luminescence, BacTiterGlo, counter-screen for streptokinase expression inhibitor project, dose response (AID 1915); type: functional, organism-based;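 also: potency for reduction of bacterial viability or growth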
# Exodeoxyribonuclease V = Exodeoxyribonuclease V (Escherichia coli (strain K12), UniProt P04993+P07648+P08394); assay: RecBCD inhibition via phage-restricted bacterial growth – absorbance, V66 E. coli, mutant T4 phage, counter-screen for AddAB inhibitor project, dose response (AID 492957); type: functional, cell-based, Escherichia coli str. K-12 substr. MG1655
# [16] = molecular target: T3, Heat shock factor protein 1 (Mus musculus, UniProt P38532); assay: enhancement of HSF1-driven luciferase signal – cell-based, NIH3T3, luminescence, dose retest, confirmation (AID 435004); type: functional;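 also: stress induced by proteasome inhibitor MG132 added 30 min after compound; luciferase reporter driven by HSF1 response element in NIH3T3 cells; actives raise luminescence as potentiators of the MG132 stress response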
# T3 sequence (P38532 whole entry): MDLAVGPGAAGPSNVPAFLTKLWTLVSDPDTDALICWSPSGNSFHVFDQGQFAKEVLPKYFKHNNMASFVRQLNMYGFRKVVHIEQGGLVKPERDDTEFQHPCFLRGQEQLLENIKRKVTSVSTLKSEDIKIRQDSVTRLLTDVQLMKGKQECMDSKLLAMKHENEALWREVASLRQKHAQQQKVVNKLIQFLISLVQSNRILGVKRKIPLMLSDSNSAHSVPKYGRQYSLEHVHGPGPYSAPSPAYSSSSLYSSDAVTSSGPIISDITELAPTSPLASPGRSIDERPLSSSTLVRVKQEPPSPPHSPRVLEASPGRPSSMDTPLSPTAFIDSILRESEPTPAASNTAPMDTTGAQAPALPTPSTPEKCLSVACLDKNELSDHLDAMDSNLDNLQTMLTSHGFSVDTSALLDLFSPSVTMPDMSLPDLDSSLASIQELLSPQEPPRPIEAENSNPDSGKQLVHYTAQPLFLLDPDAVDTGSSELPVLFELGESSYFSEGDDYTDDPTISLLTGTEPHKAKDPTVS
# [17] = Counterscreen for AddAB inhibitors: absorbance-based bacterial cell-based high throughput dose response assay for inhibitors of bacterial viability. [Related pubchem assays (depositor defined):AID435030, AID449728, AID449731, AID488942, AID488955, AID488956]; type: functional
# BJ [18] = assay: growth inhibition of engineered Ras-driven BJ cells – cell-based, alamar blue fluorescence, cherrypicked samples, dose response (AID 2631); type: functional; settings: Homo sapiens;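 also: confirmatory dose-response assay in RAS-dependent BJ fibroblasts engineered with TERT, LT and ST, with cytotoxicity read by fluorescence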
# INS1 = assay: INS-1E survival protection against cytokine death – cell-based, luminescence, retest, dose response (AID 449756); type: functional; settings: Rattus norvegicus;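 also: cell death triggered by IL-1 beta plus TNF-alpha plus IFN-gamma mixture; protective hits raise ATP signal compared with cytokine alone wells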
# [19] = viability of PTEN-deleted HCT116 cells – cell-based, HCT116 PTEN knockout, dose response (AID 1047); type: functional;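 also: HCT116 colon tumor cells with PTEN knocked out; cells exposed to compound for 60 hours before readout; potency for loss of cell viability measured by luminescence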
# [20] = viability of HCT116 lacking mutant beta-catenin – cell-based, human colon tumor, dose response (AID 1045); type: functional;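 also: HCT116 colon tumor cells with beta catenin knocked out; cells exposed to compound for 60 hours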
# X-box-binding protein 1 = X-box-binding protein 1 (Homo sapiens, UniProt P17861); type: functional, Cricetulus griseus;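 also: confirmatory dose-response counter-screen serving a CHOP assay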
# Chain of X-box-binding protein 1 (P17861 whole entry): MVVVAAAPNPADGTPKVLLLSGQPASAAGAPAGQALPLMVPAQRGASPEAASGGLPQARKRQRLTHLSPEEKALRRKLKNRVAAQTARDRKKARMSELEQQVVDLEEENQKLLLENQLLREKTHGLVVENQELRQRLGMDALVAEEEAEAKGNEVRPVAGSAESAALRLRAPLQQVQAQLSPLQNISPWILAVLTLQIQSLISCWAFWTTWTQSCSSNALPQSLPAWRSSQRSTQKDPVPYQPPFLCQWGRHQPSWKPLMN
# Trypsin = Trypsin (Sus scrofa, UniProt P00761); assay: trypsin protease activity blockade – biochemical, quenched peptide fluorescence, cherry-pick, selectivity assay for Rce1 protease inhibitor project, dose response (AID 488789)
# Chain of Trypsin (P00761 whole entry): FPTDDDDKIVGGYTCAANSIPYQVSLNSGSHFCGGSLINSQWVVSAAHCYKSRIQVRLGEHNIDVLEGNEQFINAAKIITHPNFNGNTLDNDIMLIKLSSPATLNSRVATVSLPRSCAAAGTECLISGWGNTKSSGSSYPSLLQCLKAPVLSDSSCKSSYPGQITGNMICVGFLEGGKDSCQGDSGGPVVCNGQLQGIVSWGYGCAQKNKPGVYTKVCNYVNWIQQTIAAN
# CAAX prenyl protease 2 = molecular target: T4, CAAX prenyl protease 2 (Saccharomyces cerevisiae S288c, UniProt Q03530); type: biochemical
# T4 sequence (Q03530 whole entry): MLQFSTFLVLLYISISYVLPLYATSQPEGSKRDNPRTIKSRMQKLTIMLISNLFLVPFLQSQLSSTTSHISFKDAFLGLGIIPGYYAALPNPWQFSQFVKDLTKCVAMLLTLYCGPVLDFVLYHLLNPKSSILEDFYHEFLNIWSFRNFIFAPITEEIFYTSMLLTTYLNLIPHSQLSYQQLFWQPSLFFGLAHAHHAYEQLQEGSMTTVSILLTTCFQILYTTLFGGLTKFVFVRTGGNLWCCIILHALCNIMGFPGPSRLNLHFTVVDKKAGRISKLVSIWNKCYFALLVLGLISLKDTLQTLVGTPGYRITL
# Chain of Serine hydrolase RBBP9 (O75884 whole entry): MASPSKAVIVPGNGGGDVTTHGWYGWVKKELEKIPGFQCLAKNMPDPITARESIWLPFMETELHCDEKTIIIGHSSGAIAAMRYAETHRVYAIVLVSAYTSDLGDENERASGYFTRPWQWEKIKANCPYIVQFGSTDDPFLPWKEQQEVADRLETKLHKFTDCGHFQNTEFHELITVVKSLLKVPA
smiles,measurement,setting,value
C/C(=N\OC(=O)c1ccccc1)c1nccs1,IC50,Serine hydrolase RBBP9,5 µM (active)
COc1ccc2ccccc2c1C(=O)/C=C/c1cccnc1,EC50,HEK293 [1],0.644 µM (active)
same,EC50,[2],> 8 µM (not active)
same,EC50,HEK293 [3],8.48 µM (inactive)
same,EC50,HEK293 [4],3.5 µM (active)
Oc1c(N=Nc2ccccn2)ccc2ccccc12,EC50,[5],2.67 µM (active)
same,EC50,BJ [6],2.8 µM (active)
same,EC50,cells [7],> 350 µM (not active)
same,EC50,[8],9.75 µM (active)
same,EC50,[9],7.46 µM (active)
same,EC50,Streptokinase A,> 150 µM (not active)
same,EC50,BJ [10],2.76 µM (inconclusive)
same,EC50,cells [11],6.46 µM (active)
same,IC50,[12],2.32 µM (active)
same,EC50,Beta-galactosidase,14.5 µM (active)
same,EC50,BJ [13],2.99 µM (inconclusive)
same,IC50,Ephrin type-A receptor 4,13.8 µM (active)
same,pIC50,[14],< 4.49
same,EC50,[15],3.59 µM (active)
same,EC50,Streptococcus,25.1 µM (active)
same,IC50,Exodeoxyribonuclease V,> 119 µM (inactive)
same,EC50,[16],9.82 µM (active)
same,IC50,[17],> 119 µM (inactive)
same,EC50,BJ [18],2.84 µM (active)
same,AC50,INS1,0.375 µM (active)
NC(N)=C1C(=O)N(C2CCCCC2)C(=O)N(C2CCCCC2)C1=O,EC50,[19],24 µM (active)
same,EC50,[20],25.5 µM (active)
same,Absolute IC50 (XBP1),X-box-binding protein 1,10 µM
O=C1c2cccc(OCC(=O)N3N=C(c4cccs4)CC3c3ccc(F)cc3)c2CCN1Cc1cccnc1 (stereo not given),AC50,Trypsin,12.9 µM (active)
same,AC50,CAAX prenyl protease 2,13.1 µM (active)
